Source: ChEMBL document CHEMBL5143508, “Design, synthesis and biological evaluation of novel o-aminobenzamide derivatives as potential anti-gastric cancer agents in vitro and in vivo” (Eur J Med Chem, 2022)
Calls of active or inactive are those of the source. The rule behind the calls is not given here.

How the values were obtained:
MGC-803 [1] = test: Induction of apoptosis in human MGC-803 cells assessed as necrotic cells at 5 uM incubated for 48 hrs by annexin V FITC/propidium iodide staining based flow cytometry (reference value: 1.06 %); format: functional
[2] = Tmax in Sprague-Dawley rat at 100 mg/kg, po measured up to 24 hrs by LC-MS/MS analysis; format: ADME, organism-based; settings: in vivo
HGC-27 [3] = test: Induction of apoptosis in human HGC-27 cells assessed as reduction in caspase-3 level incubated for 48 hrs by Western blot analysis; format: functional, cell-based; settings: dose 0.1-8 µM, DDE = dose-dependent effect
[4] = Cmax in Sprague-Dawley rat at 100 mg/kg, po measured up to 24 hrs by LC-MS/MS analysis; format: ADME, organism-based; parameters: dose 100 mg/kg, time < 24 hrs, route po; settings: in vivo
MGC-803 [5] = test: Induction of apoptosis in human MGC-803 cells assessed as late apoptotic cells at 5 uM incubated for 48 hrs by annexin V FITC/propidium iodide staining based flow cytometry (reference value: 4.07 %); format: functional
HGC-27 [6] = test: Induction of morphological changes in human HGC-27 cells assessed as cytomembrane foaming incubated for 36 hrs by Giemsa staining based microscopic analysis; format: functional, cell-based; settings: dose 0.1-8 µM
HGC-27 [7] = test: Induction of apoptosis in human HGC-27 cells assessed as early apoptotic cells at 0.5 uM incubated for 48 hrs by annexin V FITC/propidium iodide staining based flow cytometry (reference value: 0.66 %); format: functional
MGC-803 [8] = test: Induction of morphological changes in human MGC-803 cells assessed as cytomembrane foaming incubated for 36 hrs by Giemsa staining based microscopic analysis; format: functional, cell-based; settings: dose 2.5-20 µM
MGC-803 [9] = test: Induction of apoptosis in human MGC-803 cells assessed as early apoptotic cells at 5 uM incubated for 48 hrs by annexin V FITC/propidium iodide staining based flow cytometry (reference value: 0.42 %); format: functional
MGC-803 [10] = test: Induction of morphological changes in human MGC-803 cells assessed as chromatin condensation incubated for 36 hrs by Giemsa staining based microscopic analysis; format: functional, cell-based; settings: dose 2.5-20 µM
HGC-27 [11] = test: Induction of cell cycle arrest in human HGC-27 cells assessed as downregulation of CDK1 expression incubated for 48 hrs by Western blot analysis; format: functional, cell-based; settings: dose 0.1-8 µM
MGC-803 [12] = test: Inhibition of cell migration in human MGC-803 cells measured after 24 hrs by wound healing assay; format: functional, cell-based; settings: dose 1.25-10 µM, DDE = dose-dependent effect
[13] = MRT (0 to t) in Sprague-Dawley rat at 100 mg/kg, po measured up to 24 hrs by LC-MS/MS analysis; format: ADME, organism-based; settings: in vivo
HGC-27 [14] = test: Induction of apoptosis in human HGC-27 cells assessed as upregulation in cleaved caspase-9 expression at 0.5 to 8 uM incubated for 48 hrs by Western blot analysis; format: functional, cell-based; settings: dose 0.5-8 µM
[15] = Half life in Sprague-Dawley rat at 100 mg/kg, po measured up to 24 hrs by LC-MS/MS analysis; format: ADME, organism-based; settings: in vivo
HGC-27 [16] = test: Induction of morphological changes in human HGC-27 cells assessed as chromatin condensation incubated for 36 hrs by Giemsa staining based microscopic analysis; format: functional, cell-based; settings: dose 0.1-8 µM
HGC-27 [17] = test: Induction of apoptosis in human HGC-27 cells assessed as reduction in Bcl-2 level incubated for 48 hrs by Western blot analysis; format: functional, cell-based; settings: dose 0.1-8 µM, DDE = dose-dependent effect
HGC-27 [18] = test: Induction of cell cycle arrest in human HGC-27 cells assessed as downregulation of CDK2 expression incubated for 48 hrs by Western blot analysis; format: functional, cell-based; settings: dose 0.1-8 µM
HGC-27 [19] = test: Induction of cell cycle arrest in human HGC-27 cells assessed as downregulation of cyclin A expression incubated for 48 hrs by Western blot analysis; format: functional, cell-based; settings: dose 0.1-8 µM
MGC-803 [20] = test: Induction of apoptosis in human MGC-803 cells assessed as viable cells at 10 uM incubated for 48 hrs by annexin V FITC/propidium iodide staining based flow cytometry (reference value: 94.4 %); format: functional; settings: read-out: Activity
MGC-803 [21] = test: Induction of apoptosis in human MGC-803 cells assessed as early apoptotic cells at 10 uM incubated for 48 hrs by annexin V FITC/propidium iodide staining based flow cytometry (reference value: 0.42 %); format: functional
MGC-803 [22] = test: Induction of apoptosis in human MGC-803 cells assessed as viable cells at 5 uM incubated for 48 hrs by annexin V FITC/propidium iodide staining based flow cytometry (reference value: 94.4 %); format: functional; settings: read-out: Activity
HGC-27 [23] = test: Antiproliferative activity against human HGC-27 cells measured after 24 hrs by […]; format: functional, cell-based; settings: HGC-27, 24 h
HGC-27 [24] = test: Anti-invasion activity against human HGC-27 cells assessed as inhibition of invasion incubated for 24 hrs by transwell invasion assay; format: functional, cell-based; settings: dose 0.05-2 µM, DDE = dose-dependent effect
HGC-27 [25] = test: Induction of apoptosis in human HGC-27 cells assessed as upregulation in cleaved PARP expression at 0.5 to 8 uM incubated for 48 hrs by Western blot analysis; format: functional, cell-based; settings: dose 0.5-8 µM
HGC-27 [26] = test: Induction of cell cycle arrest in human HGC-27 cells assessed as downregulation of cyclin B1 expression incubated for 48 hrs by Western blot analysis; format: functional, cell-based; settings: dose 0.1-8 µM
MGC-803 [27] = test: Induction of apoptosis in human MGC-803 cells assessed as late apoptotic cells at 10 uM incubated for 48 hrs by annexin V FITC/propidium iodide staining based flow cytometry (reference value: 4.07 %); format: functional
MGC-803 [28] = test: Anti-invasion activity against human MGC-803 cells assessed as inhibition of invasion incubated for 24 hrs by transwell invasion assay; format: functional, cell-based; settings: dose 1.25-10 µM, DDE = dose-dependent effect
HGC-27 [29] = test: Induction of cell cycle arrest in human HGC-27 cells assessed as reduction in accumulation of cells at S phase at 0.5 to 8 uM incubated for 24 hrs by PI staining based flow cytometry analysis; format: functional; settings: dose 0.5-8 µM
HGC-27 [30] = test: Inhibition of cell migration in human HGC-27 cells measured after 24 hrs by wound healing assay; format: functional, cell-based; settings: dose 0.05-2 µM, DDE = dose-dependent effect
HGC-27 [31] = test: Induction of apoptosis in human HGC-27 cells assessed as viable cells at 8 uM incubated for 48 hrs by annexin V FITC/propidium iodide staining based flow cytometry (reference value: 93.0 %); format: functional; settings: read-out: Activity
[32] = AUC (0 to t) in Sprague-Dawley rat at 100 mg/kg, po measured up to 24 hrs by LC-MS/MS analysis; format: ADME, organism-based; parameters: dose 100 mg/kg, time < 24 hrs, route po; settings: in vivo
HGC-27 [33] = test: Induction of apoptosis in human HGC-27 cells assessed as late apoptotic cells at 8 uM incubated for 48 hrs by annexin V FITC/propidium iodide staining based flow cytometry (reference value: 5.14 %); format: functional
HGC-27 [34] = test: Induction of cell cycle arrest in human HGC-27 cells assessed as reduction in accumulation of cells at G2/M phase at 0.5 to 8 uM incubated for 24 hrs by PI staining based flow cytometry analysis; format: functional; settings: dose 0.5-8 µM
MGC-803 [35] = test: Induction of apoptosis in human MGC-803 cells assessed as necrotic cells at 10 uM incubated for 48 hrs by annexin V FITC/propidium iodide staining based flow cytometry (reference value: 1.06 %); format: functional
HGC-27 [36] = test: Induction of apoptosis in human HGC-27 cells assessed as reduction in caspase-9 level incubated for 48 hrs by Western blot analysis; format: functional, cell-based; settings: dose 0.1-8 µM, DDE = dose-dependent effect
[37] = Toxicity in BALB/c mouse xenografted with human HGC-27 cells assessed as platelet level at 150 mg/kg, po bid for 19 days; format: organism-based; settings: in vivo, 456 h, time 19 day
[38] = Toxicity in BALB/c mouse xenografted with human HGC-27 cells assessed as body weight loss at 75 to 150 mg/kg, po bid administered for 19 days and measured every other day; format: organism-based; settings: in vivo, 456 h, dose 75-150 mg/kg, time 19 day

For O=C(NCc1ccc(NC(=O)c2ccccc2N2CCCC2)cc1)OCc1cccnc1, the Activity (MGC-803 [1]) was 2.47%, the Tmax [2] was 0.5 h and the Activity (HGC-27 [3]) was “Dde”. For the same molecule, the Cmax [4] was 4090 ng/mL, the Activity (MGC-803 [5]) was 17% and the Activity (HGC-27 [6]) was “Active”. The Activity (HGC-27 [7]) was 0.92%, the Activity (MGC-803 [8]) was “Active” and the Activity (MGC-803 [9]) was 15.5%. For the same molecule, the Activity (MGC-803 [10]) was “Active”, the Activity (HGC-27 [11]) was “Active” and the inhibition (MGC-803 [12]) was “Dde”. For the same molecule, the MRT last at 24 h [13] was 1.88 h, the Activity (HGC-27 [14]) was “Active” and the half-life [15] was 1.56 h. The Activity (HGC-27 [16]) was “Active”, the Activity (HGC-27 [17]) was “Dde” and the Activity (HGC-27 [18]) was “Active”. The Activity (HGC-27 [19]) was “Active”, the viability at 10 µM (MGC-803 [20]) was 59.4% and the Activity (MGC-803 [21]) was 19.1%. The viability at 5 µM (MGC-803 [22]) was 65%, the IC50 (HGC-27 [23]) was 1.84 µM and the Activity (HGC-27 [24]) was “Dde”. The Activity (HGC-27 [25]) was “Active”, the Activity (HGC-27 [26]) was “Active” and the Activity (MGC-803 [27]) was 18.2%. For the same molecule, the Activity (MGC-803 [28]) was “Dde”, the Activity (HGC-27 [29]) was “Active” and the inhibition (HGC-27 [30]) was “Dde”. It also gave a viability at 8 µM (HGC-27 [31]) of 36.2%, an AUC(0-t) at 24 h [32] of 4720 ng·h/mL and an Activity (HGC-27 [33]) of 49.1%. The Activity (HGC-27 [34]) was “Active”, the Activity (MGC-803 [35]) was 3.27% and the Activity (HGC-27 [36]) was “Dde”.

For O=C(NCc1ccc(NC(=O)c2cc(F)ccc2N2CCCC2)cc1)OCc1cccnc1, the Activity (MGC-803 [1]) was 5.22%, the Tmax [2] was 1.2 h and the Activity (HGC-27 [3]) was “Dde”. The Cmax [4] was 3980 ng/mL, the Activity (MGC-803 [5]) was 10.4% and the Activity (HGC-27 [6]) was “Active”. The Activity [37] was 1711 10^9/L, the Activity (MGC-803 [8]) was “Active” and the Activity (MGC-803 [9]) was 3.23%. For the same molecule, the Activity (MGC-803 [10]) was “Active”, the Activity (HGC-27 [11]) was “Active” and the inhibition (MGC-803 [12]) was “Dde”. The MRT last at 24 h [13] was 4.25 h, the half-life [15] was 2.5 h and the Activity (HGC-27 [16]) was “Active”. The Activity (HGC-27 [17]) was “Dde”, the Activity (HGC-27 [18]) was “Active” and the Activity (HGC-27 [19]) was “Active”. The viability at 10 µM (MGC-803 [20]) was 82%, the Activity (MGC-803 [21]) was 7.31% and the viability at 5 µM (MGC-803 [22]) was 81.1%. The Activity [38] was “Non-Toxic”, the IC50 (HGC-27 [23]) was 0.28 µM and the Activity (HGC-27 [24]) was “Dde”. The Activity (HGC-27 [26]) was “Active”, the Activity (MGC-803 [27]) was 8.86% and the Activity (MGC-803 [28]) was “Dde”. For the same molecule, the inhibition (HGC-27 [30]) was “Dde”, the AUC(0-t) at 24 h [32] was 7310 ng·h/mL and the Activity (MGC-803 [35]) was 1.84%. For the same molecule, the Activity (HGC-27 [36]) was “Dde”.
